Reference: US20200216416A1, “QUINOLINE COMPOUNDS AS INHIBITORS OF TAM AND MET KINASES” (Array BioPharma Inc., priority 2019, published 2020)

Assays:
human MET kinase L1195V = biological target: T1, human MET kinase L1195V (Homo sapiens, UniProt P08581, L1195V); experiment: c-Met Enzyme Assay, L1195V mutant; type: binding; conditions: averaged IC50; L1195V 10 nM; 60-minute incubation at 22° C.
T1 construct: GST-tagged recombinant human MET kinase domain; purchased Signal Chem
Protocol: (§1) The affinity of compound binding to wild type and mutant human MET kinases was measured using Invitrogen's LanthaScreen™ Eu Kinase Binding technology. Briefly, GST-tagged recombinant human MET kinase domain from Signal Chem (see Table 8 below for concentration in assay) was incubated with 50 nM Alexa-Fluor® Tracer 236 (Invitrogen Cat No. PR9078A) and 2 nM Europium-anti-GST (Invitrogen Cat. No. A15116) along with test compound in a buffer consisting of 25 mM HEPES, pH 7.4, 10 mM MgCl2, 0.01% Triton X-100, 1mM DTT, and 2% DMSO. Compounds were typically prepared in a three-fold serial dilution in DMSO and added to the assay to give the appropriate final concentration. After a 60-minute incubation at 22° C., the reaction was measured using a PerkinElmer EnVision multimode plate reader via TR-FRET dual wavelength detection, and the percent of control (POC) calculated using a ratiometric emission factor. […] The POC values were fit to a 4 parameter logistic curve and the IC50 value is point where the curve crosses 50 POC.

[1] = biological target: T2, His-tagged recombinant human MER cytoplasmic domain (Homo sapiens, UniProt Q12866); experiment: MER Enzyme Assay (LanthaScreen Eu Kinase Binding); conditions: averaged IC50; MER 5 nM; 60-minute incubation at 22° C.; TR-FRET
T2 construct: His-tagged recombinant human MER cytoplasmic domain
T2 sequence (Q12866 527-999 limits assumed): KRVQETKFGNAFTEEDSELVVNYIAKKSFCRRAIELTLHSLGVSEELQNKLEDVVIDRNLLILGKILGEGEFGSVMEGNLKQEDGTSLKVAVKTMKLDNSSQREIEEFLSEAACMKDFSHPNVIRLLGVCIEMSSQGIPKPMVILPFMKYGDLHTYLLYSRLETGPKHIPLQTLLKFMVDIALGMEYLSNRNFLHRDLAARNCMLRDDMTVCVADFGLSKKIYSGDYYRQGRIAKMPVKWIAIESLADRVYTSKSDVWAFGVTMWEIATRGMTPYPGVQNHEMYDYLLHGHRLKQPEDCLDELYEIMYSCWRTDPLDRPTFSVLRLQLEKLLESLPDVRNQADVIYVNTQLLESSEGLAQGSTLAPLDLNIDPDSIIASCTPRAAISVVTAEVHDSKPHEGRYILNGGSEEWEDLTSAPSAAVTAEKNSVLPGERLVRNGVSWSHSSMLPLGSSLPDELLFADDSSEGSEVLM
How it was run: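 TR-FRET binding: 5 nM His-MER cytoplasmic domain with 20 nM Tracer 236, 2 nM biotin-anti-His and 2 nM Eu-streptavidin in pH 7.4 HEPES, 10 mM MgCl2, 2% DMSO, with threefold compound dilutions, 60 min at 22 °C. Percent of control was fit to a 4-parameter logistic, and IC50 was taken at 50 POC.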

human MET kinase D1228N = biological target: T3, human MET kinase D1228N (Homo sapiens, UniProt P08581, D1228N); experiment: c-Met Enzyme Assay, D1228N mutant; type: binding; conditions: averaged IC50; D1228N 2 nM; 60-minute incubation at 22° C.; read-out: D1228 N IC50
T3 construct: GST-tagged recombinant human MET kinase domain; purchased Signal Chem
T3 sequence (P08581 1078-1345 D1228N): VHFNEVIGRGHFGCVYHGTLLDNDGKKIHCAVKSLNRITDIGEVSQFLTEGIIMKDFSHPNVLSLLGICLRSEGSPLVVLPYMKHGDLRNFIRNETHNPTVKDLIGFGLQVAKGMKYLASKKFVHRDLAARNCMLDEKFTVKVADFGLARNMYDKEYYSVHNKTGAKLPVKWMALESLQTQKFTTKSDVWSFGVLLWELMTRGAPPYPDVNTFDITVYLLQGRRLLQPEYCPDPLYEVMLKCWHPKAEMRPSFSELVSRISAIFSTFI
Protocol: as §1

human MET kinase Y1230H = biological target: T4, human MET kinase Y1230H (Homo sapiens, UniProt P08581, Y1230H); experiment: c-Met Enzyme Assay, Y1230H mutant; type: binding; conditions: averaged IC50; Y1230H 5 nM; 60-minute incubation at 22° C.; read-out: Y1230 H IC50
T4 construct: GST-tagged recombinant human MET kinase domain; purchased Signal Chem
T4 sequence (P08581 1078-1345 Y1230H): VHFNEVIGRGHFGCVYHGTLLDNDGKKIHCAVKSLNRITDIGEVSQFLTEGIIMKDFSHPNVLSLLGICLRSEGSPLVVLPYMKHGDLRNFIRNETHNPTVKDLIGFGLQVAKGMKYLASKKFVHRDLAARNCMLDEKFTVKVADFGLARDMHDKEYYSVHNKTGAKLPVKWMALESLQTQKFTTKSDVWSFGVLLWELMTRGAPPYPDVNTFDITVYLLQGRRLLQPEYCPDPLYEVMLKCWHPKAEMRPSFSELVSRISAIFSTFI
Protocol: as §1

T1 sequence (P08581 1078-1345 L1195V limits assumed): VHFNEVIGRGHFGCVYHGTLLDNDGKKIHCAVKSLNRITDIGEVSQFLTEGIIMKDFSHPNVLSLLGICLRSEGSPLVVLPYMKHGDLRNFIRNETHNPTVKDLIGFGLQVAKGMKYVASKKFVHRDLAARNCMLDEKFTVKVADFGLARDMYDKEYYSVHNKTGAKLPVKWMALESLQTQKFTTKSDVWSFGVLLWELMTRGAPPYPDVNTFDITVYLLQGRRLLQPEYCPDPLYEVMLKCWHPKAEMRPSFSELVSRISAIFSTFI

| SMILES | IC50 (human MET kinase L1195V) | IC50 [1] | IC50 (human MET kinase D1228N) | IC50 (human MET kinase Y1230H) |
| --- | --- | --- | --- | --- |
| COc1cc2nccc(Oc3ccc(NC(=O)c4cn(CCC(C)C)cc(-c5ccc(F)cc5F)c4=O)nc3)c2cc1OC [Example 36, 5-(2,4-difluorophenyl)-N-(5-((6,7-dimethoxyquinolin-4yl)oxy)pyridin-2-yl)-1-isopentyl-4-oxo-1,4-dihydropyridine-3-carboxamide] | 14.4 nM | 8 nM | 4.8 nM | 4.4 nM |
| COc1cc2nccc(Oc3ccc(NC(=O)c4cn(CCC(C)C)cc(-c5ccc(Cl)cc5)c4=O)nc3)c2cc1OC [Example 37] | 23.2 nM | 16 nM | 16.8 nM | 16.8 nM |
| CCn1cc(C(=O)Nc2ccc(Oc3ccnc4ccc(OC)cc34)cn2)c(=O)c(-c2ccc(F)cc2)c1 [Example 39, 1-ethyl-5-(4-fluorophenyl)-N-(5-((6-methoxyquinolin-4-yl)oxy)pyridin-2-yl)-4-oxo-1,4-dihydropyridine-3-carboxamide] | 508 nM | 16 nM | 179 nM | 209 nM |
| COc1ccc2nccc(Oc3ccc(NC(=O)c4cn(C)cc(-c5ccc(F)cc5)c4=O)nc3)c2c1 [Example 41, 5-(4-fluorophenyl)-N-(5-((6-methoxyquinolin-4yl)oxy)pyridin-2-yl)-1-methyl-4-oxo-1,4-dihydropyridine-3-carboxamide] | 2220 nM | 33 nM | 646 nM | 328 nM |
| COc1cc2nccc(Oc3ccc(NC(=O)c4cn(CCN(C)C)cc(-c5ccc(Cl)cc5)c4=O)nc3)c2cc1OC [Example 42] | 8.2 nM | 9 nM | 7 nM | 6.7 nM |
| COc1cc2nccc(Oc3ccc(NC(=O)c4cn(CCN(C)C)cc(-c5ccc(F)c(F)c5)c4=O)nc3)c2cc1OC [Example 43, 5-(3,4-difluorophenyl)-N-(5-((6,7-dimethoxyquinolin-4-yl)oxy)pyridin-2-yl)-1-] | 14.2 nM | 5 nM | 2.7 nM | 2.9 nM |
| COc1cc2nccc(Oc3ccc(NC(=O)c4cn(CCN(C)C)cc(-c5ccc(F)cc5F)c4=O)nc3)c2cc1OC [Example 44, 5-(2,4-difluorophenyl)-N-(5-((6,7-dimethoxyquinolin-4-yl)oxy)pyridin-2-yl)-1-(2-(dimethylamino)ethyl)-4-oxo-1,4-dihydropyridine-3-carboxamide] | 18.9 nM | 3 nM | 3.2 nM | 2.7 nM |
| COc1cc2nccc(Oc3ccc(NC(=O)c4cn(C)c(C(C)C)c(-c5ccc(F)cc5)c4=O)nc3)c2cc1OC [Example 45, N-(5-((6,7-dimethoxyquinolin-4-yl)oxy)pyridin-2-yl)-5-(4-fluorophenyl)-6-isopropyl-1-methyl-4-oxo-1,4-dihydropyridine-3-carboxamide] | 41.4 nM | 27 nM | 13.4 nM | 9.9 nM |
| COc1cc2nccc(Oc3ccc(NC(=O)c4cn(CCN(C)C)cc(-c5ccc(F)cc5)c4=O)nc3)c2cc1OC [Example 46] | 21.9 nM | 2 nM | 5.4 nM | 3.4 nM |
| COc1ccc2nccc(Oc3ccc(NC(=O)c4cn(CCN(C)C)cc(-c5ccc(F)cc5)c4=O)nc3)c2c1 [Example 47] | 414 nM | 7 nM | 29.7 nM | 29.4 nM |
| COc1cc2c(Oc3ccc(NC(=O)c4cn(C(C)C)c(C)c(-c5ccc(F)cc5)c4=O)nc3)ccnc2cc1F [Example 48, N-(5-((7-fluoro-6-methoxyquinolin-4yl)oxy)pyridin-2-yl)-5-(4-fluorophenyl)-1-isopropyl-6-methyl-4-oxo-1,4-dihydropyridine-3-carboxamide] | 31.7 nM | 5 nM | 14.6 nM | 15.8 nM |
| COc1cc2c(Oc3ccc(NC(=O)c4cn(C(C)C)cc(-c5ccc(F)cc5)c4=O)nc3)ccnc2cc1F [Example 49, N-(5-((7-fluoro-6-methoxyquinolin-4yl)oxy)pyridin-2-yl)-5-(4-fluorophenyl)-1-isopropyl-4-oxo-1,4-dihydropyridine-3-carboxamide] | 459 nM | 5 nM | 130 nM | 112 nM |
| CC(C)n1cc(C(=O)Nc2ccc(Oc3ccnc4cc(OC(F)(F)F)ccc34)cn2)c(=O)c(-c2ccc(F)cc2)c1 [Example 50, 5-(4-fluorophenyl)-1-isopropyl-4-oxo-N-(5-((7-(trifluoromethoxy)quinolin-4-yl)oxy)pyridin-2-yl)-1,4-dihydropyridine-3-carboxamide] | 1030 nM | 79 nM | 444 nM | 397 nM |
| CCOc1ccc2nccc(Oc3ccc(NC(=O)c4cn(C(C)C)cc(-c5ccc(F)cc5)c4=O)nc3)c2c1 [Example 51, N-(5-((6-ethoxyquinolin-4-yl)oxy)pyridin-2-yl)-5-(4-fluorophenyl)-1-isopropyl-4-oxo-1,4-dihydropyridine-3-carboxamide] | 495 nM | 14 nM | 178 nM | 200 nM |
| CCOc1ccc2c(Oc3ccc(NC(=O)c4cn(C(C)C)cc(-c5ccc(F)cc5)c4=O)nc3)ccnc2c1 [Example 52, N-(5-((7-ethoxyquinolin-4-yl)oxy)pyridin-2-yl)-5-(4-fluorophenyl)-1-isopropyl-4-oxo-1,4-dihydropyridine-3-carboxamide] | 73.6 nM | 11 nM | 26.3 nM | 32.6 nM |
| COc1cc2nccc(Oc3cnc(NC(=O)c4cn(C(C)C)cc(-c5ccc(F)cc5)c4=O)nc3)c2cc1OC [Example 54, N-(5-((6,7-dimethoxyquinolin-4-yl)oxy)pyrimidin-2-yl)-5-(4-fluorophenyl)-1-isopropyl-4-oxo-1,4-dihydropyridine-3-carboxamide] | 14.7 nM | 10 nM | 8.3 nM | 7.2 nM |
| COc1cc2nccc(Oc3cnc(NC(=O)c4cn(C(C)C)c(C)c(-c5ccc(F)cc5)c4=O)nc3)c2cc1OC [Example 55, N-(5-((6,7-dimethoxyquinolin-4-yl)oxy)pyrimidin-2-yl)-5-(4-fluorophenyl)-1-isopropyl-6-methyl-4-oxo-1,4-dihydropyridine-3-carboxamide] | 5.1 nM | 5 nM | 3.4 nM | 2.8 nM |
| COc1cc2c(Oc3ccc(NC(=O)c4cn(C(C)C)cc(-c5ccc(F)cc5)c4=O)nc3)ccnc2cc1OCCCN1CCOCC1 [Example 56, 5-(4-fluorophenyl)-1-isopropyl-N-(5-((6-methoxy-7-(3-morpholinopropoxy)quinolin-4-yl)oxy)pyridin-2-yl)-4-oxo-1,4-dihydropyridine-3-carboxamide] | 5.3 nM | 6 nM | 4.3 nM | 5.2 nM |
| COc1cc2nccc(Oc3ccc(NC(=O)c4cn(C(C)C)cc(-c5ccc(F)cc5)c4=O)cn3)c2cc1OC [Example 58, N-(6-((6,7-dimethoxyquinolin-4-yl)oxy)pyridin-3-yl)-5-(4-fluorophenyl)-1-isopropyl-4-oxo-1,4-dihydropyridine-3-carboxamide] | 35 nM | 2 nM | 7.7 nM | 5.3 nM |
